Test results from a melting point compilation (Tetko et al.; mined from patent text by program, amines drawn as free bases though some values may be those of a salt).

Row | Compound | melting point [°C]
1 | O=C1CSCc2nc(-c3ccccc3)ccc21 | 78 to 81
2 | COC(=O)c1cccn2c(I)cnc12 | 99 to 110
3 | CCN(CC)C(=O)c1[nH]c2ccccc2c1CN(Cc1cc(C(F)(F)F)cc(C(F)(F)F)c1)c1nnn(C)n1 | 98
4 | CCOCc1nc2c(N)nc3cc(-n4cccn4)ccc3c2n1CCCOC | 159 to 160
5 | CCCCCc1ccc(CC(=O)c2ccc(OC)cc2)cc1 | 62
6 | Cc1nc2c(O)cccn2c(=O)c1CCN1CCC(c2noc3cc(F)ccc23)CC1 | 288
7 | CONC(=O)c1ccccc1OCc1ccc(Cl)cc1Cl | 100 to 102
8 | CC(CC(C)Oc1ccc(-c2ccc(C#N)cc2)cc1)Oc1ccc(-c2ccc(C#N)cc2)cc1 (stereo not drawn) | 140
9 | CCOC(=O)Cc1ccc(-c2ccc(OC)cc2)cc1 | 68
10 | CCCCc1ncc(C=C2C(=O)Nc3ccccc32)n1Cc1ccc(C(=O)O)cc1 | 237 to 238
11 | CCOC(=O)c1ccc(/C=C(\C)c2ccc(O)c(C3(C)CCCCC3)c2)cc1 | 124
12 | COCC(=O)Nc1nc(N)nc(NC2CC2)n1 | 152 to 157
13 | O=C1c2ccccc2C(=O)N1CCSCc1ccco1 | 59 to 61
14 | O=C(c1cncc(Br)c1)N1CCOCC1 | 49 to 51
15 | CCCc1ccnc2c(=O)[nH]c(-c3cc(N)ccc3OCC)nc12 | 156 to 158
16 | O=C(Nc1cc(Cl)ccc1S(=O)(=O)c1ccccc1)N[C@@H](Cc1ccc(NC(=O)c2c(Cl)cccc2Cl)cc1)C(=O)O | 242
17 | COc1c(CCC(=O)O)cccc1Oc1ccccc1C | 71 to 75
18 | CNC(=S)NS(=O)(=O)c1cc(CCNC(=O)/C=C/c2ccccn2)ccc1OC | 188
19 | Cc1nc(C(F)(F)F)ccc1/C=C/C(=O)Nc1ccc2[nH]ccc2c1 | 231

Row | Compound | melting point [°C]
20 | O=C1SCC(O)=C1Cc1ccc2ccccc2c1Br | 205 to 206
21 | CCCN1N=C2C(=Cc3ccc(Cl)cc3)CS(=O)(=O)CC2C1c1ccc(Cl)cc1 (stereo not drawn) | 208 to 210
22 | COc1ccc(NC(=N)N2CCCCC2)c(-c2ccccc2)c1 | 155
23 | c1ccc(OCCn2c(CC3CC3)nc3cnc4cc(-c5ccccc5)ccc4c32)cc1 | 175 to 176
24 | CCN(CC)CCOc1ccc(C(O)(CC)c2cc(C)ccc2C)cc1 (stereo not drawn) | 89 to 90
25 | O=Cc1c(Cl)ccc(C(=O)O)c1Cl | 188 to 190
26 | O=[N+]([O-])c1ccc(Oc2nn(Cc3ccccc3F)c3ncccc23)nc1 | 111 to 113
27 | COc1cc2ncc(C#N)c(Nc3cccc(C#N)c3)c2cc1OC | 285 to 288
28 | NS(=O)(=O)c1ccc(-n2nc(CCCNC(=O)Nc3cccc(C(F)(F)F)c3)cc2-c2ccccc2)cc1 | 176
29 | COc1ccc(CC(C)=NO)cc1S(N)(=O)=O | 193 to 194
30 | Fc1nc(/C=C/c2ccccc2)cn1C(c1ccccc1)(c1ccccc1)c1ccccc1 | 167 to 170
31 | O=C(c1cccnc1)N1CCC(c2ccccc2C(F)(F)F)=N1 | 95 to 97
32 | COC(=O)c1cc(=O)c2ccc(OCC(O)COc3cccc(O)c3C(C)=O)cc2[nH]1 (stereo not drawn) | 192 to 194
33 | Cc1cc2c3c(cc(Br)cc3c1Br)C(=O)N(O)C2=O | 320 to 323
34 | CN(C)c1ccc2c(c1)C(=O)CC(c1cccc(O)c1)=N2 | 342 to 344
35 | CCCn1c(COC)nc2c(N)nc3ccc(OCCCN4CCN(c5ccccn5)CC4)cc3c21 | 196 to 197
36 | O=c1cc(NCCN2CCN(c3ccccc3)CC2)cn[nH]1 | 147 to 149
37 | Cc1ccc(C(=O)NCCC(=O)OCc2ccccc2)c(NC(=O)C(CCCNC(=N)N[N+](=O)[O-])NC(=O)OCc2ccccc2)c1 (stereo not drawn) | 154 to 156
38 | O=C(N[C@H](Cc1ccc(C(F)(F)F)cc1)[C@@H](O)c1ccccc1F)c1ccc(F)c2ccccc12 (racemic) | 190 to 191
